Source: patent US20240059671A1, “TYROSINE KINASE 2 (TYK2) DEGRADATION COMPOUNDS AND METHODS OF USE” (CULLGEN (SHANGHAI), INC., priority 2020, published 2024)

Target: TYK2 (Homo sapiens, UniProt P29597)
Assay: TYK2 protein degradation in MOLT-4 cells by immunoblotting
Type: cell-based
Design: endogenous in cells; host or cells: MOLT-4
Conditions: MOLT-4 cells, 24 hours
Outline: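 MOLT-4 cells were exposed to compounds at 0.5 and 5 μM for 24 h, then lysed in RIPA buffer with protease and phosphatase inhibitors. TYK2 was detected by SDS-PAGE immunoblot with chemiluminescence, and band densitometry gave percent degradation.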

Chain of TYK2 (P29597 whole entry): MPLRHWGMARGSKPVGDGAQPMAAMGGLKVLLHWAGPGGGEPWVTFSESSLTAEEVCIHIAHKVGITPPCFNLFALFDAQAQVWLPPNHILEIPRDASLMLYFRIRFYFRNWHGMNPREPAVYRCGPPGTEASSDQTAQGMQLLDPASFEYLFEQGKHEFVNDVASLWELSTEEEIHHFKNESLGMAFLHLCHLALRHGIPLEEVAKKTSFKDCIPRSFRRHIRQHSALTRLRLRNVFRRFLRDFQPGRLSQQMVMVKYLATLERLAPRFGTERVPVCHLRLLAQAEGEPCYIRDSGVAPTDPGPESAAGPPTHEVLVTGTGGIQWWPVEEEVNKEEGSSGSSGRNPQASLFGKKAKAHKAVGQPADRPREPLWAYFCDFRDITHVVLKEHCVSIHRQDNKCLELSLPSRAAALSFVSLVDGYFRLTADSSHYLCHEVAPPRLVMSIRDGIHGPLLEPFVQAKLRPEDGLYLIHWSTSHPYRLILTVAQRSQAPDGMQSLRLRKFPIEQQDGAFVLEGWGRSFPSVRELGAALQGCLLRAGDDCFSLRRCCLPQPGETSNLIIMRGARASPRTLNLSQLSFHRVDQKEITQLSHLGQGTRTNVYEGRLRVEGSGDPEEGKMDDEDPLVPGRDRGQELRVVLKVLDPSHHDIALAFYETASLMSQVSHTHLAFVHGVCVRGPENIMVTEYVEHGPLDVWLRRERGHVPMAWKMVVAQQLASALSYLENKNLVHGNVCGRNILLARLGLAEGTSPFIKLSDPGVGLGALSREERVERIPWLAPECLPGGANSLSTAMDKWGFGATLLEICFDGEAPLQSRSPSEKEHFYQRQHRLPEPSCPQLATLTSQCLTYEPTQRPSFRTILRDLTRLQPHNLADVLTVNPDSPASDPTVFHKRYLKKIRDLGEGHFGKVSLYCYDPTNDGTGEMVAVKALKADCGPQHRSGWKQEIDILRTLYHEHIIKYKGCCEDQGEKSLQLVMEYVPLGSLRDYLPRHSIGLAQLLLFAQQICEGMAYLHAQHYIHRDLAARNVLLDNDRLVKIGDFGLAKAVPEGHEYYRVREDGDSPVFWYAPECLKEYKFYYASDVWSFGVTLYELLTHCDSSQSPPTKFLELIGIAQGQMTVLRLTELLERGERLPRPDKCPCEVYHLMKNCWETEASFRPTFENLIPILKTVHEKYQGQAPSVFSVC

Structure (SMILES)	TYK2 Degradation (MOLT-4, 0.5 μM)	TYK2 Degradation (MOLT-4, 5 μM)	TYK2 Degradation (0.5 μM)	TYK2 Degradation (5 μM)
CNC(=O)c1nnc(NC(=O)CNC(=O)CCCCCCC(=O)N[C@H](C(=O)N2C[C@H](O)C[C@H]2C(=O)N[C@@H](C)c2ccc(-c3scnc3C)cc2)C(C)(C)C)cc1Nc1cccc(-c2ncn(C)n2)c1OC [CPD-083, N^1-((S)-1-((2S,4R)-4-Hydroxy-2-(((S)-1-(4-(4-methylthiazol-5-yl)phenyl)ethyl)carbamoyl)pyrrolidin-1-yl)-3,3-dimethyl-1-oxobutan-2-yl)-N^8-(2-((5-((2-methoxy-3-(1-methyl-1H-1,2,4-triazol-3-yl)phenyl)amino)-6-(methylcarbamoyl)pyridazin-3-yl)amino)-2-oxoethyl)octanediamide]	B (B: <60% TYK2 degradation, and >20% TYK2 degradation)	A (A: ≥60% TYK2 degradation)	–	–
CNC(=O)c1nnc(NC(=O)CNC(=O)CCOCCNc2ccc3c(c2)C(=O)N(C2CCC(=O)NC2=O)C3=O)cc1Nc1cccc(-c2ncn(C)n2)c1OC (stereo not shown) [CPD-061, 6-(2-(3-(2-((2-(2,6-Dioxopiperidin-3-yl)-1,3-dioxoisoindolin-5-yl)amino)ethoxy)propanamido)acetamido)-4-((2-methoxy-3-(1-methyl-1H-1,2,4-triazol-3-yl)phenyl)amino)-N-methylpyridazine-3-carboxamide]	–	–	≤20%	≤20%
CNC(=O)c1nnc(NC(=O)CNC(=O)CCCCCCCNc2ccc3c(c2)C(=O)N(C2CCC(=O)NC2=O)C3=O)cc1Nc1cccc(-c2ncn(C)n2)c1OC (stereo not shown) [CPD-060, 6-(2-(8-((2-(2,6-Dioxopiperidin-3-yl)-1,3-dioxoisoindolin-5-yl)amino)octanamido)acetamido)-4-((2-methoxy-3-(1-methyl-1H-1,2,4-triazol-3-yl)phenyl)amino)-N-methylpyridazine-3-carboxamide]	–	–	≤20%	≤20%
CNC(=O)c1nnc(NC(=O)CNC(=O)CCCCCCCNc2cccc3c2C(=O)N(C2CCC(=O)NC2=O)C3=O)cc1Nc1cccc(-c2ncn(C)n2)c1OC (stereo not shown) [CPD-048, 6-(2-(8-((2-(2,6-Dioxopiperidin-3-yl)-1,3-dioxoisoindolin-4-yl)amino)octanamido)acetamido)-4-((2-methoxy-3-(1-methyl-1H-1,2,4-triazol-3-yl)phenyl)amino)-N-methylpyridazine-3-carboxamide]	–	–	50%	≤20%
CNC(=O)c1nnc(NC(=O)CNC(=O)CCCCCCCCNC(=O)C[C@H](NC(=O)[C@@H]2C[C@@H](O)CN2C(=O)[C@@H](NC(=O)C2(F)CC2)C(C)(C)C)c2ccc(-c3scnc3C)cc2)cc1Nc1cccc(-c2ncn(C)n2)c1OC [CPD-093, 6-(2-(9-((S)-3-((2S,4R)-1-((S)-2-(1-Fluorocyclopropane-1-carboxamido)-3,3-dimethylbutanoyl)-4-hydroxypyrrolidine-2-carboxamido)-3-(4-(4-methylthiazol-5-yl)phenyl)propanamido)nonanamido)acetamido)-4-((2-methoxy-3-(1-methyl-1H-1,2,4-triazol-3-yl)phenyl)amino)-N-methylpyridazine-3-carboxamide]	C (C: ≤20% TYK2 degradation)	C (C: ≤20% TYK2 degradation)	–	–
CNC(=O)c1nnc(NC(=O)CNC(=O)CCCCCCNc2ccc3c(c2)C(=O)N(C2CCC(=O)NC2=O)C3=O)cc1Nc1cccc(-c2ncn(C)n2)c1OC (stereo not shown) [CPD-059, 6-(2-(7-((2-(2,6-Dioxopiperidin-3-yl)-1,3-dioxoisoindolin-5-yl)amino)heptanamido)acetamido)-4-((2-methoxy-3-(1-methyl-1H-1,2,4-triazol-3-yl)phenyl)amino)-N-methylpyridazine-3-carboxamide]	–	–	≤20%	≤20%
CNC(=O)c1nnc(NC(=O)CNC(=O)CCOCCOCCC(=O)N[C@H](C(=O)N2C[C@H](O)C[C@H]2C(=O)NCc2ccc(-c3scnc3C)cc2)C(C)(C)C)cc1Nc1cccc(-c2ncn(C)n2)c1OC [CPD-028, 6-((S)-15-((2S,4R)-4-Hydroxy-2-((4-(4-methylthiazol-5-yl)benzyl)carbamoyl)pyrrolidine-1-carbonyl)-16,16-dimethyl-4,13-dioxo-7,10-dioxa-3,14-diazaheptadecanamido)-4-((2-methoxy-3-(1-methyl-1H-1,2,4-triazol-3-yl)phenyl)amino)-N-methylpyridazine-3-carboxamide]	–	–	≤20%	≤20%
CNC(=O)c1nnc(NC(=O)C2CC2)cc1Nc1cccc(-c2ncn(CCNC(=O)CCCCCCCNc3cccc4c3C(=O)N(C3CCC(=O)NC3=O)C4=O)n2)c1OC (stereo not shown) [CPD-007, 6-(Cyclopropanecarboxamido)-4-((3-(1-(2-(8-((2-(2,6-dioxopiperidin-3-yl)-1,3-dioxoisoindolin-4-yl)amino)octanamido)ethyl)-1H-1,2,4-triazol-3-yl)-2-methoxyphenyl)amino)-N-methylpyridazine-3-carboxamide]	–	–	≤20%	–
CNC(=O)c1nnc(NC(=O)CNC(=O)CCCCCCCCCNC(=O)C[C@H](NC(=O)[C@@H]2C[C@@H](O)CN2C(=O)[C@@H](NC(=O)C2(F)CC2)C(C)(C)C)c2ccc(-c3scnc3C)cc2)cc1Nc1cccc(-c2ncn(C)n2)c1OC [CPD-094, 6-(2-(10-((S)-3-((2S,4R)-1-((S)-2-(1-Fluorocyclopropane-1-carboxamido)-3,3-dimethylbutanoyl)-4-hydroxypyrrolidine-2-carboxamido)-3-(4-(4-methylthiazol-5-yl)phenyl)propanamido)decanamido)acetamido)-4-((2-methoxy-3-(1-methyl-1H-1,2,4-triazol-3-yl)phenyl)amino)-N-methylpyridazine-3-carboxamide]	B (B: <60% TYK2 degradation, and >20% TYK2 degradation)	B (B: <60% TYK2 degradation, and >20% TYK2 degradation)	–	–
CNC(=O)c1nnc(NC(=O)C2CC2)cc1Nc1cccc(-c2ncn(CCNC(=O)CCCCCCCCC(=O)N[C@H](C(=O)N3C[C@H](O)C[C@H]3C(=O)NCc3ccc(-c4scnc4C)cc3)C(C)(C)C)n2)c1OC [CPD-081, N^1-(2-(3-(3-((6-(Cyclopropanecarboxamido)-3-(methylcarbamoyl)pyridazin-4-yl)amino)-2-methoxyphenyl)-1H-1,2,4-triazol-1-yl)ethyl)-N^10-((S)-1-((2S,4R)-4-hydroxy-2-((4-(4-methylthiazol-5-yl)benzyl)carbamoyl)pyrrolidin-1-yl)-3,3-dimethyl-1-oxobutan-2-yl)decanediamide]	C (C: ≤20% TYK2 degradation)	C (C: ≤20% TYK2 degradation)	–	–
CNC(=O)c1nnc(NC(=O)CNC(=O)COCCOCCOCC(=O)N[C@H](C(=O)N2C[C@H](O)C[C@H]2C(=O)NCc2ccc(-c3scnc3C)cc2)C(C)(C)C)cc1Nc1cccc(-c2ncn(C)n2)c1OC [CPD-029, 6-((S)-16-((2S,4R)-4-Hydroxy-2-((4-(4-methylthiazol-5-yl)benzyl)carbamoyl)pyrrolidine-1-carbonyl)-17,17-dimethyl-4,14-dioxo-6,9,12-trioxa-3,15-diazaoctadecanamido)-4-((2-methoxy-3-(1-methyl-1H-1,2,4-triazol-3-yl)phenyl)amino)-N-methylpyridazine-3-carboxamide]	–	–	≤20%	≤20%
CNC(=O)c1nnc(NC(=O)CNC(=O)CCOCCOCCNc2ccc3c(c2)C(=O)N(C2CCC(=O)NC2=O)C3=O)cc1Nc1cccc(-c2ncn(C)n2)c1OC (stereo not shown) [CPD-062, 6-(2-(3-(2-(2-((2-(2,6-Dioxopiperidin-3-yl)-1,3-dioxoisoindolin-5-yl)amino)ethoxy)ethoxy)propanamido)acetamido)-4-((2-methoxy-3-(1-methyl-1H-1,2,4-triazol-3-yl)phenyl)amino)-N-methylpyridazine-3-carboxamide]	–	–	≤20%	≤20%
CNC(=O)c1nnc(NC(=O)C2CC2)cc1Nc1cccc(-c2ncn(CCNC(=O)CCNc3ccc4c(c3)C(=O)N(C3CCC(=O)NC3=O)C4=O)n2)c1OC (stereo not shown) [CPD-014, 6-(Cyclopropanecarboxamido)-4-((3-(1-(2-(3-((2-(2,6-dioxopiperidin-3-yl)-1,3-dioxoisoindolin-5-yl)amino)propanamido)ethyl)-1H-1,2,4-triazol-3-yl)-2-methoxyphenyl)amino)-N-methylpyridazine-3-carboxamide]	–	–	≤20%	–
CNC(=O)c1nnc(NC(=O)CNC(=O)CCCCNC(=O)C[C@H](NC(=O)[C@@H]2C[C@@H](O)CN2C(=O)[C@@H](NC(=O)C2(F)CC2)C(C)(C)C)c2ccc(-c3scnc3C)cc2)cc1Nc1cccc(-c2ncn(C)n2)c1OC [CPD-089, 6-(2-(5-((S)-3-((2S,4R)-1-((S)-2-(1-Fluorocyclopropane-1-carboxamido)-3,3-dimethylbutanoyl)-4-hydroxypyrrolidine-2-carboxamido)-3-(4-(4-methylthiazol-5-yl)phenyl)propanamido)pentanamido)acetamido)-4-((2-methoxy-3-(1-methyl-1H-1,2,4-triazol-3-yl)phenyl)amino)-N-methylpyridazine-3-carboxamide]	C (C: ≤20% TYK2 degradation)	C (C: ≤20% TYK2 degradation)	–	–
CNC(=O)c1nnc(NC(=O)CNC(=O)CCCCCNc2ccc3c(c2)C(=O)N(C2CCC(=O)NC2=O)C3=O)cc1Nc1cccc(-c2ncn(C)n2)c1OC (stereo not shown) [CPD-058, 6-(2-(6-((2-(2,6-Dioxopiperidin-3-yl)-1,3-dioxoisoindolin-5-yl)amino)hexanamido)acetamido)-4-((2-methoxy-3-(1-methyl-1H-1,2,4-triazol-3-yl)phenyl)amino)-N-methylpyridazine-3-carboxamide]	–	–	≤20%	≤20%
